Test in all cases: biochemical
What all share (type): binding

The target in one assay is HLA-DRB1*11:01 (Homo sapiens, UniProt P01903+P01911, A100R/A169T/A87E/I96F/K41T/L162R/M171V/P40S/Q125H/Q178H/Q39Y/Q99D/R42S/S66Y/T262R/V115G/W38E). Particulars: […]; mean of at least two independent experiments; read-out: IC50 DRB1*1101 (converted).
A further assay deals with T1, HLA-DRB5*01:01 (Homo sapiens, UniProt P01903+Q30154).
T1 construct: Human leukocyte antigen-DR molecules were immunopurified from homozygous EBV B lymphoblastoid cells; endogenous in cells
Particulars: […]; mean of at least two independent experiments; read-out: IC50 DRB5*0101.

For the next assay, the target named is HLA-DRB1*07:01 (Homo sapiens, UniProt P01903+P01911, A100R/A102G/A103Q/D57E/D86V/E43K/F76Y/K127E/L162R/M171V/P40G/Q125H/Q99D/R33Q/R42Y/R54Q/S133A/S66F/T210M/V115G/Y107V/Y59L/Y89S). The conditions noted are these: […]; mean of at least two independent experiments; read-out: IC50 DRB1*0701 (converted).
A further assay deals with T2, HLA-DRB1*04:01 (Homo sapiens, UniProt P01903+P01911, A100K/A169T/F76Y/I96L/K127E/L162R/M171V/N62H/P40V/Q125Y/R42H/S133A/S149N/S66Y/V115G/V209L/W38E).
T2 construct: Human leukocyte antigen-DR molecules were immunopurified from homozygous EBV B lymphoblastoid cells; endogenous in cells
The conditions noted are these: […]; mean of at least two independent experiments; read-out: IC50 DRB1*0401.

For the next assay, the target named is T3, HLA-DRB1*01:01 (Homo sapiens, UniProt P01903+P01911, A100R/D57E/F55L/F60I/F76Y/I96L/L162R/M171V/P40L/Q125E/R42F/V115G/Y59C).
T3 construct: Human leukocyte antigen-DR molecules were immunopurified from homozygous EBV B lymphoblastoid cells; endogenous in cells
Particulars: […]; mean of at least two independent experiments; read-out: IC50 DRB1*0101.

Where a SMILES comes first, the peptide text is derived from it. [ ]: non-standard residue; d: D form. Aib = CC(C)(N)C(=O)O

Sequence of HLA-DRB1*11:01 (P01903 26-254 limits assumed, other chains not shown): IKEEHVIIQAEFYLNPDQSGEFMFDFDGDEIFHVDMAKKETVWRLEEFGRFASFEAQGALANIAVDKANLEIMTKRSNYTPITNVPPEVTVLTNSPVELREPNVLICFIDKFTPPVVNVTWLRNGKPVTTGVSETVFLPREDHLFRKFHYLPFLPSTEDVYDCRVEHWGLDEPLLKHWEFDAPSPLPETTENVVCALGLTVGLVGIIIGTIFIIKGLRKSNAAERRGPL

In general, IC50 refers to the concentration that inhibits the measured activity by half. Consider `CC(C)C[C@H](NC(=O)[C@H](CCCCN)NC(=O)[C@H](CC(C)C)NC(=O)[C@@H](NC(=O)[C@H](CC(N)=O)NC(=O)[C@H](CCC(N)=O)NC(=O)[C@H](CCCCN)NC(=O)[C@@H](NC(=O)[C@H](Cc1ccc(O)cc1)NC(=O)[C@H](CCCCN)NC(=O)C(C)(C)N)C(C)C)[C@@H](C)O)C(=O)N[C@@H](C)C(=O)N[C@H](C(=O)O)[C@@H](C)O` [Aib1] (H-[Aib]KYVKQNTLKLAT-OH), for which the IC50 on HLA-DRB1*11:01 is 18 nM; at HLA-DRB5*01:01 it was 3 nM; at HLA-DRB1*07:01, 11 nM; on HLA-DRB1*04:01 it was 20 nM; at HLA-DRB1*01:01, 0.3 nM.
As to `CC(C)C[C@H](NC(=O)[C@H](CCCCN)NC(=O)[C@H](CC(C)C)NC(=O)[C@@H](NC(=O)[C@H](CC(N)=O)NC(=O)[C@H](CCC(N)=O)NC(=O)[C@H](CCCCN)NC(=O)[C@@H](NC(=O)[C@H](Cc1ccc(O)cc1)NC(=O)C(C)(C)NC(=O)[C@@H]1CCCN1)C(C)C)[C@@H](C)O)C(=O)N[C@@H](C)C(=O)N[C@H](C(=O)O)[C@@H](C)O` [Aib2] (H-P[Aib]YVKQNTLKLAT-OH), the IC50 on HLA-DRB1*11:01 is 4000 nM; at HLA-DRB5*01:01 it was 500 nM; at HLA-DRB1*07:01, 7700 nM; at HLA-DRB1*04:01, 95 nM; on HLA-DRB1*01:01, 8 nM.
`CC(C)C[C@H](NC(=O)[C@H](CCCCN)NC(=O)[C@H](CC(C)C)NC(=O)[C@@H](NC(=O)[C@H](CC(N)=O)NC(=O)[C@H](CCC(N)=O)NC(=O)[C@H](CCCCN)NC(=O)[C@@H](NC(=O)C(C)(C)NC(=O)[C@H](CCCCN)NC(=O)[C@@H]1CCCN1)C(C)C)[C@@H](C)O)C(=O)N[C@@H](C)C(=O)N[C@H](C(=O)O)[C@@H](C)O` [Aib3]: the IC50 on HLA-DRB1*11:01 was more than 100000 nM; at HLA-DRB5*01:01, more than 10000 nM; on HLA-DRB1*07:01 it was 460 nM; at HLA-DRB1*04:01, more than 100000 nM; on HLA-DRB1*01:01, 60 nM.
Take `CC(C)C[C@H](NC(=O)[C@H](CCCCN)NC(=O)[C@H](CC(C)C)NC(=O)[C@@H](NC(=O)[C@H](CC(N)=O)NC(=O)[C@H](CCC(N)=O)NC(=O)[C@H](CCCCN)NC(=O)C(C)(C)NC(=O)[C@H](Cc1ccc(O)cc1)NC(=O)[C@H](CCCCN)NC(=O)[C@@H]1CCCN1)[C@@H](C)O)C(=O)N[C@@H](C)C(=O)N[C@H](C(=O)O)[C@@H](C)O` [Aib4]: the IC50 on HLA-DRB1*11:01 was 4000 nM; on HLA-DRB5*01:01 it was 280 nM; on HLA-DRB1*07:01, 6000 nM; on HLA-DRB1*04:01, 75 nM; at HLA-DRB1*01:01 it was 10 nM.
The matching figures for `CC(C)C[C@H](NC(=O)[C@H](CCCCN)NC(=O)[C@H](CC(C)C)NC(=O)[C@@H](NC(=O)[C@H](CC(N)=O)NC(=O)[C@H](CCC(N)=O)NC(=O)C(C)(C)NC(=O)[C@@H](NC(=O)[C@H](Cc1ccc(O)cc1)NC(=O)[C@H](CCCCN)NC(=O)[C@@H]1CCCN1)C(C)C)[C@@H](C)O)C(=O)N[C@@H](C)C(=O)N[C@H](C(=O)O)[C@@H](C)O` [Aib5]: 300 nM, 600 nM, 780 nM, 30 nM and 1 nM.
With `CC(C)C[C@H](NC(=O)[C@H](CCCCN)NC(=O)[C@H](CC(C)C)NC(=O)[C@@H](NC(=O)[C@H](CC(N)=O)NC(=O)C(C)(C)NC(=O)[C@H](CCCCN)NC(=O)[C@@H](NC(=O)[C@H](Cc1ccc(O)cc1)NC(=O)[C@H](CCCCN)NC(=O)[C@@H]1CCCN1)C(C)C)[C@@H](C)O)C(=O)N[C@@H](C)C(=O)N[C@H](C(=O)O)[C@@H](C)O` [Aib6], the IC50 at HLA-DRB1*11:01 was 150 nM; on HLA-DRB5*01:01, 5 nM; at HLA-DRB1*07:01, 75 nM; on HLA-DRB1*04:01, 55000 nM; on HLA-DRB1*01:01, 0.7 nM.
Take `CC(C)C[C@H](NC(=O)[C@H](CCCCN)NC(=O)[C@H](CC(C)C)NC(=O)[C@@H](NC(=O)C(C)(C)NC(=O)[C@H](CCC(N)=O)NC(=O)[C@H](CCCCN)NC(=O)[C@@H](NC(=O)[C@H](Cc1ccc(O)cc1)NC(=O)[C@H](CCCCN)NC(=O)[C@@H]1CCCN1)C(C)C)[C@@H](C)O)C(=O)N[C@@H](C)C(=O)N[C@H](C(=O)O)[C@@H](C)O` [Aib7] (H-PKYVKQ[Aib]TLKLAT-OH): the IC50 at HLA-DRB1*11:01 was 6000 nM; at HLA-DRB5*01:01, 900 nM; at HLA-DRB1*07:01, 4200 nM; on HLA-DRB1*04:01 it was 45 nM; at HLA-DRB1*01:01, 6.8 nM.
As for `CC(C)C[C@H](NC(=O)[C@H](CCCCN)NC(=O)[C@H](CC(C)C)NC(=O)C(C)(C)NC(=O)[C@H](CC(N)=O)NC(=O)[C@H](CCC(N)=O)NC(=O)[C@H](CCCCN)NC(=O)[C@@H](NC(=O)[C@H](Cc1ccc(O)cc1)NC(=O)[C@H](CCCCN)NC(=O)[C@@H]1CCCN1)C(C)C)C(=O)N[C@@H](C)C(=O)N[C@H](C(=O)O)[C@@H](C)O` [Aib8], the IC50 is 550 nM on HLA-DRB1*11:01; 140 nM at HLA-DRB5*01:01; 90 nM at HLA-DRB1*07:01; 140 nM at HLA-DRB1*04:01; 0.8 nM at HLA-DRB1*01:01.
As for `CC(C)C[C@H](NC(=O)[C@@H](NC(=O)[C@H](CC(N)=O)NC(=O)[C@H](CCC(N)=O)NC(=O)[C@H](CCCCN)NC(=O)[C@@H](NC(=O)[C@H](Cc1ccc(O)cc1)NC(=O)[C@H](CCCCN)NC(=O)[C@@H]1CCCN1)C(C)C)[C@@H](C)O)C(=O)NC(C)(C)C(=O)N[C@@H](CC(C)C)C(=O)N[C@@H](C)C(=O)N[C@H](C(=O)O)[C@@H](C)O` [Aib10], the IC50 on HLA-DRB1*11:01 is 8000 nM; at HLA-DRB5*01:01 it was 5000 nM; at HLA-DRB1*07:01, 16000 nM; on HLA-DRB1*04:01 it was 490 nM; at HLA-DRB1*01:01, 9 nM.
Take `CC(C)C[C@H](NC(=O)[C@@H](NC(=O)[C@H](CC(N)=O)NC(=O)[C@H](CCC(N)=O)NC(=O)[C@H](CCCCN)NC(=O)[C@@H](NC(=O)[C@H](Cc1ccc(O)cc1)NC(=O)[C@H](CCCCN)NC(=O)[C@@H]1CCCN1)C(C)C)[C@@H](C)O)C(=O)N[C@@H](CCCCN)C(=O)NC(C)(C)C(=O)N[C@@H](C)C(=O)N[C@H](C(=O)O)[C@@H](C)O` [Aib11]: the IC50 was 350 nM on HLA-DRB1*11:01; 95 nM on HLA-DRB5*01:01; 3000 nM on HLA-DRB1*07:01; 25 nM at HLA-DRB1*04:01; 20 nM at HLA-DRB1*01:01.
On the same counts, the results for `CC(C)C[C@H](NC(=O)[C@H](CCCCN)NC(=O)[C@H](CC(C)C)NC(=O)[C@@H](NC(=O)[C@H](CC(N)=O)NC(=O)[C@H](CCC(N)=O)NC(=O)[C@H](CCCCN)NC(=O)[C@@H](NC(=O)[C@H](Cc1ccc(O)cc1)NC(=O)[C@H](CCCCN)NC(=O)[C@@H]1CCCN1)C(C)C)[C@@H](C)O)C(=O)NC(C)(C)C(=O)N[C@H](C(=O)O)[C@@H](C)O` [Aib12] are 100 nM, 5 nM, 9 nM, 32 nM and 0.7 nM.
On the same counts, the results for `CC(C)C[C@H](NC(=O)[C@H](CCCCN)NC(=O)[C@H](CC(C)C)NC(=O)[C@@H](NC(=O)[C@H](CC(N)=O)NC(=O)[C@H](CCC(N)=O)NC(=O)[C@H](CCCCN)NC(=O)[C@@H](NC(=O)[C@H](Cc1ccc(O)cc1)NC(=O)[C@H](CCCCN)NC(=O)[C@@H]1CCCN1)C(C)C)[C@@H](C)O)C(=O)N[C@@H](C)C(=O)NC(C)(C)C(=O)O` [Aib13] are 8 nM, 2 nM, 6 nM, 6 nM and 0.2 nM.
In the case of `CC(C)C[C@H](NC(=O)[C@H](CCCCN)NC(=O)[C@H](CC(C)C)NC(=O)[C@@H](NC(=O)[C@H](CC(N)=O)NC(=O)[C@H](CCC(N)=O)NC(=O)[C@H](CCCCN)NC(=O)[C@@H](NC(=O)CN(Cc1ccc(O)cc1)C(=O)[C@H](CCCCN)NC(=O)[C@@H]1CCCN1)C(C)C)[C@@H](C)O)C(=O)N[C@@H](C)C(=O)N[C@H](C(=O)O)[C@@H](C)O` [Pep3], the IC50 at HLA-DRB1*11:01 was more than 100000 nM; on HLA-DRB5*01:01, 14000 nM; on HLA-DRB1*07:01 it was more than 100000 nM; on HLA-DRB1*04:01 it was more than 10000 nM; on HLA-DRB1*01:01, 4000 nM.
As to `CC(C)C[C@H](NC(=O)[C@H](CCCCN)NC(=O)[C@H](CC(C)C)NC(=O)[C@@H](NC(=O)[C@H](CC(N)=O)NC(=O)[C@H](CCC(N)=O)NC(=O)[C@H](CCCCN)NC(=O)CN(C(=O)[C@H](Cc1ccc(O)cc1)NC(=O)[C@H](CCCCN)NC(=O)[C@@H]1CCCN1)C(C)C)[C@@H](C)O)C(=O)N[C@@H](C)C(=O)N[C@H](C(=O)O)[C@@H](C)O` [Pep4], the IC50 on HLA-DRB1*11:01 is 6000 nM; on HLA-DRB5*01:01, 280 nM; at HLA-DRB1*07:01 it was 710 nM; at HLA-DRB1*04:01, 14 nM; at HLA-DRB1*01:01, 5 nM.
With `CC(C)C[C@H](NC(=O)[C@H](CCCCN)NC(=O)[C@H](CC(C)C)NC(=O)[C@@H](NC(=O)[C@H](CC(N)=O)NC(=O)CN(CCC(N)=O)C(=O)[C@H](CCCCN)NC(=O)[C@@H](NC(=O)[C@H](Cc1ccc(O)cc1)NC(=O)[C@H](CCCCN)NC(=O)[C@@H]1CCCN1)C(C)C)[C@@H](C)O)C(=O)N[C@@H](C)C(=O)N[C@H](C(=O)O)[C@@H](C)O` [Pep6], the IC50 at HLA-DRB1*11:01 was 45 nM; on HLA-DRB5*01:01, 10 nM; on HLA-DRB1*07:01 it was 290 nM; on HLA-DRB1*04:01 it was 82 nM; on HLA-DRB1*01:01, 0.4 nM.
